The subject of one experiment is HCV replicon genotype 1a. Briefly: microbe, parasite or virus in culture. It is filed as cell-based, hepatitis C virus (HCV). As to conditions: for IC50: Hepatitis C virus, 96 h, read-out: 1a IC50 (nM); for pIC50: read-out: 1a IC50.
A further experiment has as its system HCV replicon genotype 1b. Briefly: microbe, parasite or virus in culture. It is filed as cell-based, hepatitis C virus (HCV). As to conditions: for IC50: Hepatitis C virus, 96 h, read-out: 1b IC50 (nM); for pIC50: read-out: 1b IC50.

pIC50: −log10 of the molar value. Like-named read-outs stand apart in the source and are kept apart here.

Consider `CNC(=O)c1c(-c2ccc(F)cc2)oc2cc(N(C)S(C)(=O)=O)c(-c3ccc4c(n3)C(=O)N(Cc3ccccc3)CO4)cc12` [Compound 1, 5-(3-benzyl-4-oxo-3,4-dihydro-2H-pyrido[2,3-e][1,3]oxazin-6-yl)-2-(4-fluorophenyl)-N-methyl-6-(N-methylmethylsulfonamido)benzofuran-3-carboxamide], for which the figures for the IC50 in the experiment with HCV replicon genotype 1a and in the experiment on HCV replicon genotype 1b were 3.22 nM and 2.44 nM, respectively.
Turning to `CNC(=O)c1c(-c2ccc(F)cc2)oc2cc(N(C)S(C)(=O)=O)c(-c3ccc4c(n3)C(=O)N(c3ccc(F)cc3)CO4)cc12` [Compound 2], the IC50 in the experiment on HCV replicon genotype 1a was determined as 24.8 nM; in the experiment with HCV replicon genotype 1b, 3.34 nM.
Turning to `CNC(=O)c1c(-c2ccc(F)cc2)oc2cc(N(C)S(C)(=O)=O)c(-c3ccc4c(n3)C(=O)N(c3cccc(F)c3)CO4)cc12` [Compound 3], the IC50 in the experiment on HCV replicon genotype 1a was 4.83 nM; with HCV replicon genotype 1b it was 2.84 nM.
As to `CNC(=O)c1c(-c2ccc(F)cc2)oc2cc(N(C)S(C)(=O)=O)c(-c3ccc4c(n3)C(=O)N(CCc3ccccc3)CO4)cc12` [Compound 4], the IC50 with HCV replicon genotype 1a was determined as 39.9 nM; in the experiment with HCV replicon genotype 1b, 15.2 nM.
The matching figures for `CNC(=O)c1c(-c2ccc(F)cc2)oc2cc(N(C)S(C)(=O)=O)c(-c3ccc4c(n3)C(=O)N(Cc3ccc(OC)cc3)CO4)cc12` [Compound 5]: 3.06 nM and 1.59 nM.
The like results for `CNC(=O)c1c(-c2ccc(F)cc2)oc2cc(N(C)S(C)(=O)=O)c(-c3ccc4c(n3)C(=O)N(Cc3cccc(F)c3)CO4)cc12` [Compound 7] were, in that order, 1.48 nM and 1.06 nM.
As to `CNC(=O)c1c(-c2ccc(F)cc2)oc2cc(N(C)S(C)(=O)=O)c(-c3ccc4c(n3)C(=O)N(Cc3ccccc3F)CO4)cc12` [Compound 8], the IC50 worked out at 5.87 nM in the experiment with HCV replicon genotype 1a and 2.62 nM with HCV replicon genotype 1b.
For the compound `CNC(=O)c1c(-c2ccc(F)cc2)oc2cc(N(C)S(C)(=O)=O)c(-c3ccc4c(n3)C(=O)N(Cc3ccc(C#N)cc3)CO4)cc12` [Compound 9], the IC50 with HCV replicon genotype 1a turned out to be 8.03 nM; in the experiment on HCV replicon genotype 1b, 3.91 nM.
Take `CNC(=O)c1c(-c2ccc(F)cc2)oc2cc(N(C)S(C)(=O)=O)c(-c3ccc4c(n3)C(=O)N(Cc3ccc(F)cn3)CO4)cc12` [Compound 11, 2-(4-fluorophenyl)-5-(3-((5-fluoropyridin-2-yl)methyl)-4-oxo-3,4-dihydro-2H-pyrido[2,3-e][1,3]oxazin-6-yl)-N-methyl-6-(N-methylmethylsulfonamido)benzofuran-3-carboxamide]: the figures for the IC50 in the experiment on HCV replicon genotype 1a and in the experiment on HCV replicon genotype 1b were 15.3 nM and 7.68 nM, respectively.
As to `CNC(=O)c1c(-c2ccc(F)cc2)oc2cc(N(C)S(C)(=O)=O)c(-c3ccc4oc(=O)n(Cc5ccc(F)cc5)c(=O)c4n3)cc12` [Compound 14, 5-(3-(4-fluorobenzyl)-2,4-dioxo-3,4-dihydro-2H-pyrido[2,3-e][1,3]oxazin-6-yl)-2-(4-fluorophenyl)-N-methyl-6-(N-methylmethylsulfonamido)benzofuran-3-carboxamide], the IC50 is 435 nM with HCV replicon genotype 1a and 35.9 nM with HCV replicon genotype 1b.
With `CNC(=O)c1c(-c2ccc(F)cc2)oc2cc(N(C)S(C)(=O)=O)c(-c3cnc4c(c3)C(=O)NC(C3CC3)N4)cc12` (stereo not drawn) [Compound 16], the IC50 in the experiment on HCV replicon genotype 1a was found to be 128 nM; in the experiment on HCV replicon genotype 1b, 39.2 nM.
As to `CNC(=O)c1c(-c2ccc(F)cc2)oc2cc(N(C)S(C)(=O)=O)c(-c3cnc4ncn(-c5ccc(F)cc5)c(=O)c4c3)cc12` [Compound 22], the results for the IC50 in the experiment on HCV replicon genotype 1a and in the experiment with HCV replicon genotype 1b were 16.2 nM and 4.12 nM, respectively.
Consider `CNC(=O)c1c(-c2ccc(F)cc2)oc2cc(N(C)S(C)(=O)=O)c(-c3cnc4ncn(-c5cccc(F)c5)c(=O)c4c3)cc12` [Compound 23], for which the IC50 with HCV replicon genotype 1a was 3.98 nM; in the experiment with HCV replicon genotype 1b it was 3.24 nM.
Consider `CNC(=O)c1c(-c2ccc(F)cc2)oc2cc(N(C)S(C)(=O)=O)c(-c3cnc4ncn(Cc5ccc(F)cc5)c(=O)c4c3)cc12` [Compound 24], for which the IC50 with HCV replicon genotype 1a was 2.59 nM; in the experiment on HCV replicon genotype 1b it was 2.57 nM.
In the case of `CNC(=O)c1c(-c2ccc(F)cc2)oc2cc(N(C)S(C)(=O)=O)c(-c3cnc4ncn([C@H](C)c5ccc(F)cc5)c(=O)c4c3)cc12` [Compound 25], the values for the IC50 in the experiment with HCV replicon genotype 1a and in the experiment on HCV replicon genotype 1b were 16.3 nM and 11.9 nM, respectively.
As to `CNC(=O)c1c(-c2ccc(F)cc2)oc2cc(N(C)S(C)(=O)=O)c(-c3ccc4c(n3)C(=O)N([C@H](C)c3ccc(F)cc3)CO4)cc12` [Compound 30, (R)-2-(4-fluorophenyl)-5-(3-(1-(4-fluorophenyl)ethyl)-4-oxo-3,4-dihydro-2H-pyrido[2,3-e][1,3]oxazin-6-yl)-N-methyl-6-(N-methylmethylsulfonamido)benzofuran-3-carboxamide], the values for the pIC50 with HCV replicon genotype 1a and with HCV replicon genotype 1b were 9.01 and 8.65, respectively.
`CNC(=O)c1c(-c2ccc(F)cc2)oc2cc(N(C)S(C)(=O)=O)c(-c3ccc4c(n3)C(=O)N([C@@H](C)c3ccc(F)cc3)CO4)cc12` [Compound 31, (S)-2-(4-fluorophenyl)-5-(3-(1-(4-fluorophenyl)ethyl)-4-oxo-3,4-dihydro-2H-pyrido[2,3-e][1,3]oxazin-6-yl)-N-methyl-6-(N-methylmethylsulfonamido)benzofuran-3-carboxamide]: the pIC50 was 7.38 in the experiment on HCV replicon genotype 1a and 7.90 in the experiment on HCV replicon genotype 1b.
Consider `CNC(=O)c1c(-c2ccc(F)cc2)oc2ccc(-c3ccc4c(n3)C(=O)N(C(C)(C)c3ccc(F)cc3)CO4)cc12` [Compound 33, 2-(4-fluorophenyl)-5-(3-(2-(4-fluorophenyl)propan-2-yl)-4-oxo-3,4-dihydro-2H-pyrido[2,3-e][1,3]oxazin-6-yl)-N-methylbenzofuran-3-carboxamide], for which the IC50 came to 708 nM in the experiment on HCV replicon genotype 1a and 1690 nM in the experiment with HCV replicon genotype 1b.
The like results for `CNC(=O)c1c(-c2ccc(F)cc2)oc2ccc(-c3ccc4c(n3)C(=O)N(Cc3ccc(F)cc3)CO4)cc12` [Compound 34, 5-(3-(4-fluorobenzyl)-4-oxo-3,4-dihydro-2H-pyrido[2,3-e][1,3]oxazin-6-yl)-2-(4-fluorophenyl)-N-methylbenzofuran-3-carboxamide] were, in that order, 8930 nM and 10400 nM.
The like results for `CNC(=O)c1c(-c2ccc(F)cc2)oc2cc(N(C)S(C)(=O)=O)c(-c3ccc4c(n3)C(=O)N(Cc3ccc(F)cc3)CC4)cc12` [Compound 36, 5-(7-(4-fluorobenzyl)-8-oxo-5,6,7,8-tetrahydro-1,7-naphthyridin-2-yl)-2-(4-fluorophenyl)-N-methyl-6-(N-methylmethylsulfonamido)benzofuran-3-carboxamide] were, in that order, 1.08 nM and 0.527 nM.
Regarding `CNC(=O)c1c(-c2ccc(F)cc2)oc2ccc(-c3ccc4c(n3)C(=O)N(Cc3ccc(F)cc3)CC4)cc12` [Compound 37, 5-(7-(4-fluorobenzyl)-8-oxo-5,6,7,8-tetrahydro-1,7-naphthyridin-2-yl)-2-(4-fluorophenyl)-N-methylbenzofuran-3-carboxamide], the IC50 in the experiment on HCV replicon genotype 1a is 77.3 nM; with HCV replicon genotype 1b, 11.4 nM.
For `CNC(=O)c1c(-c2ccc(F)cc2)oc2cc(N(C)S(C)(=O)=O)c(-c3ccc4nnn([C@H](COC)c5ccc(F)cc5)c(=O)c4c3)cc12` [Compound 39, (S)-2-(4-fluorophenyl)-5-(3-(1-(4-fluorophenyl)-2-methoxyethyl)-4-oxo-3,4-dihydrobenzo[d][1,2,3]triazin-6-yl)-N-methyl-6-(N-methylmethylsulfonamido)benzofuran-3-carboxamide], the IC50 in the experiment on HCV replicon genotype 1a worked out at 4.04 nM; in the experiment on HCV replicon genotype 1b it was 9.27 nM.
`CNC(=O)c1c(-c2ccc(F)cc2)oc2cc(N(C)S(C)(=O)=O)c(-c3ccc4nnn([C@H](CO)c5ccc(F)cc5)c(=O)c4c3)cc12` [Compound 40, 2-(4-fluorophenyl)-5-{3-[(1S)-1-(4-fluorophenyl)-2-hydroxyethyl]-4-oxo-3,4-dihydro-1,2,3-benzotriazin-6-yl}-N-methyl-6-[methyl(methylsulfonyl)amino]-1-benzofuran-3-carboxamide]: the IC50 in the experiment on HCV replicon genotype 1a amounted to 6.19 nM; in the experiment with HCV replicon genotype 1b, 9.03 nM.
For the compound `CNC(=O)c1c(-c2ccc(F)cc2)oc2cc(N(C)S(C)(=O)=O)c(-c3ccc4nnn([C@@H](COC)c5ccc(F)cc5)c(=O)c4c3)cc12` [Compound 41, 2-(4-fluorophenyl)-5-{3-[(1R)-1-(4-fluorophenyl)-2-methoxyethyl]-4-oxo-3,4-dihydro-1,2,3-benzotriazin-6-yl}-N-methyl-6-[methyl(methylsulfonyl)amino]-1-benzofuran-3-carboxamide], the figures for the IC50 with HCV replicon genotype 1a and in the experiment with HCV replicon genotype 1b were 18.1 nM and 16.2 nM, respectively.
The like results for `CNC(=O)c1c(-c2ccc(F)cc2)oc2cc(N(C)S(C)(=O)=O)c(-c3ccc4nnn(Cc5ccccc5)c(=O)c4c3)cc12` [Compound 42, 5-(3-benzyl-4-oxo-3,4-dihydro-1,2,3-benzotriazin-6-yl)-2-(4-fluorophenyl)-N-methyl-6-[methyl(methylsulfonyl)amino]-1-benzofuran-3-carboxamide] were, in that order, 9.48 nM and 9.55 nM.
Take `CNC(=O)c1c(-c2ccc(F)cc2)oc2cc(N(C)S(C)(=O)=O)c(-c3ccc4nnn(C(CO)c5ccccc5)c(=O)c4c3)cc12` (stereo not drawn) [Compound 43, 2-(4-fluorophenyl)-5-[3-(2-hydroxy-1-phenylethyl)-4-oxo-3,4-dihydro-1,2,3-benzotriazin-6-yl]-N-methyl-6-[methyl(methylsulfonyl)amino]-1-benzofuran-3-carboxamide]: the IC50 in the experiment on HCV replicon genotype 1a came out at 15.1 nM; in the experiment with HCV replicon genotype 1b it was 9.66 nM.
`CNC(=O)c1c(-c2ccc(F)cc2)oc2cc(N(C)S(C)(=O)=O)c(-c3ccc4nnn(Cc5ccc(F)cc5)c(=O)c4c3)cc12` [Compound 44, 5-[3-(4-fluorobenzyl)-4-oxo-3,4-dihydro-1,2,3-benzotriazin-6-yl]-2-(4-fluorophenyl)-N-methyl-6-[methyl(methylsulfonyl)amino]-1-benzofuran-3-carboxamide]: the IC50 with HCV replicon genotype 1a is 5.62 nM; with HCV replicon genotype 1b, 10.5 nM.

The values are drawn from patent publication US9364482B2, “Substituted benzofuran compounds and methods of use thereof for the treatment of viral diseases” (priority 2013, dated 2016).
